For data set [1] the following is noted: dog, in vivo, po.
Procedure: Blood samples were taken at 0.25(tablet only), 0.5, 1, 2, 4, 6, 8, 10, 12 and 24 hours postmedication. The plasma concentration of (5α,17α)-1'-(methylsulfonyl)-1'-H-pregn-20-yno[3,2-c]pyrazol-17-ol was measured from each sample. The data were analyzed to determine the mean maximum concentration of (5α,17α)-1'-(methylsulfonyl)-1'-H-pregn-20-yno[3,2-c]pyrazol-17-ol reached (mean Cmax) and the mean area under the (5α,17α)-1'-(methylsulfonyl)-1'H-pregn-20-yno[3,2-c]pyrazol-17-ol concentration-time curve for the twenty-four hour period (mean AUC0-24).
For data set [2] the following is noted: in vivo, po; cited from earlier work.

Results on two molecules are retold here after US5340589A, “Low solubility drug-coated bead compositions” (Sterling Winthrop Inc., priority 1993, dated 1994).

Consider “(5α,17α)-1'-(methylsulfonyl)-1'H-pregn-20-yno[3,2-c]pyrazol-17-ol [Comparative Example]”, for which the “Mean Cmax” value in data set [1] was 0.23 (0.11) μg./ml. For the same molecule, in data set [1] (24 h), the “Mean AUC0-24” value is given as 1.70 (1.64) μg.-hr./ml.

Turning to `C#C[C@]1(O)CC[C@H]2[C@@H]3CCC4=Cc5oncc5C[C@]4(C)[C@H]3CC[C@@]21C` [Compound A, 17a-pregna-2,4-diene-20-yno[2,3-d]isoxazol-17-ol], the “human bioavailability compared with conventional starch-lactose-talc-magnesium stearate dry powder capsule formulations” value in data set [2] is “Improved human bioavailability”.
